Assay results: the supplement of paper PMC13380429

Key:
Conditions in all cases: 72 h
[1] = tested on: HepG2; assay: cell viability relative to DMSO; higher = less toxic
[2] = tested on: U2OS; assay: as above
[3] = tested on: Caco-2; assay: as above
[4] = tested on: Vero E6; assay: as above
[5] = tested on: Calu-3; assay: as above
[6] = tested on: HepG2; assay: relative viability EC50 (midpoint between 100% and the lowest measured viability); higher = less toxic
[7] = tested on: U2OS; assay: as above
[8] = tested on: Caco-2; assay: as above
[9] = tested on: Vero E6; assay: as above
[10] = tested on: Calu-3; assay: as above
[11] = tested on: HepG2; assay: drug sensitivity score (DSS) for viability; higher = more toxic; extreme values may be limits of the assay
[12] = tested on: U2OS; assay: as above
[13] = tested on: Caco-2; assay: as above
[14] = tested on: Vero E6; assay: as above
[15] = tested on: Calu-3; assay: as above

CN(C)CCN1C(=O)c2cccc3cc(NC(N)=O)cc(c23)C1=O [unbs-5162] showed a cell viability ([1]; 1 nM) of 100%, a cell viability ([1]; 10 nM) of 101% and a cell viability ([1]; 100 nM) of 93.7%. It also gave a cell viability ([1]; 1000 nM) of 86.5%, a cell viability ([1]; 10000 nM) of 42.2% and a cell viability ([2]; 1 nM) of 104%. For the same compound, the cell viability ([2]; 10 nM) was 99.7%, the cell viability ([2]; 100 nM) was 96.4% and the cell viability ([2]; 1000 nM) was 101%. It also gave a cell viability ([2]; 10000 nM) of 88%, a cell viability ([3]; 1 nM) of 96.5% and a cell viability ([3]; 10 nM) of 99.3%. For the same compound, the cell viability ([3]; 100 nM) was 93.5%, the cell viability ([3]; 1000 nM) was 104% and the cell viability ([3]; 10000 nM) was 96%. The cell viability ([4]; 1 nM) was 108%, the cell viability ([4]; 10 nM) was 101% and the cell viability ([4]; 100 nM) was 107%. For the same compound, the cell viability ([4]; 1000 nM) was 95.1%, the cell viability ([4]; 10000 nM) was 90.8% and the cell viability ([5]; 1 nM) was 100%. It also gave a cell viability ([5]; 10 nM) of 105%, a cell viability ([5]; 100 nM) of 95.9% and a cell viability ([5]; 1000 nM) of 88.6%. The cell viability ([5]; 10000 nM) was 78.4%, the “relative viability EC50” value [6] was 1.61 µM and the “relative viability EC50” value [7] was over 10 µM. The “relative viability EC50” value [8] was over 10 µM, the “relative viability EC50” value [9] was over 10 µM and the “relative viability EC50” value [10] was over 10 µM. For the same compound, the drug sensitivity score [11] was 5.3, the drug sensitivity score [12] was 0 and the drug sensitivity score [13] was 0. For the same compound, the drug sensitivity score [14] was 0 and the drug sensitivity score [15] was 1.5.

With CC(=O)C1=C(O)C=C2Oc3c(C(C)=O)c(O)c(C)c(O)c3C2(C)C1=O (stereo not drawn) [usniacin-(+)] the cell viability ([1]; 1 nM) was 111%, the cell viability ([1]; 10 nM) was 97.1% and the cell viability ([1]; 100 nM) was 102%. The cell viability ([1]; 1000 nM) was 110%, the cell viability ([1]; 10000 nM) was 94% and the cell viability ([2]; 1 nM) was 98.9%. For the same compound, the cell viability ([2]; 10 nM) was 75.3%, the cell viability ([2]; 100 nM) was 95.8% and the cell viability ([2]; 1000 nM) was 83.5%. It also gave a cell viability ([2]; 10000 nM) of 95.5%, a cell viability ([3]; 1 nM) of 104% and a cell viability ([3]; 10 nM) of 101%. It also gave a cell viability ([3]; 100 nM) of 91.1%, a cell viability ([3]; 1000 nM) of 95.6% and a cell viability ([3]; 10000 nM) of 108%. The cell viability ([4]; 1 nM) was 101%, the cell viability ([4]; 10 nM) was 95.4% and the cell viability ([4]; 100 nM) was 100%. It also gave a cell viability ([4]; 1000 nM) of 98.9%, a cell viability ([4]; 10000 nM) of 101% and a cell viability ([5]; 1 nM) of 107%. For the same compound, the cell viability ([5]; 10 nM) was 99.4%, the cell viability ([5]; 100 nM) was 95.2% and the cell viability ([5]; 1000 nM) was 113%. For the same compound, the cell viability ([5]; 10000 nM) was 96.4%, the “relative viability EC50” value [6] was over 10 µM and the “relative viability EC50” value [7] was over 10 µM. The “relative viability EC50” value [8] was over 10 µM, the “relative viability EC50” value [9] was over 10 µM and the “relative viability EC50” value [10] was over 10 µM. It also gave a drug sensitivity score [11] of 0, a drug sensitivity score [12] of 0 and a drug sensitivity score [13] of 0. For the same compound, the drug sensitivity score [14] was 0 and the drug sensitivity score [15] was 0.

With COc1cc(C=O)ccc1O [vanillin] the cell viability ([1]; 1 nM) was 99.9%, the cell viability ([1]; 10 nM) was 91.9% and the cell viability ([1]; 100 nM) was 102%. It also gave a cell viability ([1]; 1000 nM) of 115%, a cell viability ([1]; 10000 nM) of 97.4% and a cell viability ([2]; 1 nM) of 96.1%. It also gave a cell viability ([2]; 10 nM) of 104%, a cell viability ([2]; 100 nM) of 95.1% and a cell viability ([2]; 1000 nM) of 104%. For the same compound, the cell viability ([2]; 10000 nM) was 99.1%, the cell viability ([3]; 1 nM) was 92.8% and the cell viability ([3]; 10 nM) was 90%. For the same compound, the cell viability ([3]; 100 nM) was 96%, the cell viability ([3]; 1000 nM) was 104% and the cell viability ([3]; 10000 nM) was 96.6%. The cell viability ([4]; 1 nM) was 92%, the cell viability ([4]; 10 nM) was 91.5% and the cell viability ([4]; 100 nM) was 89.7%. It also gave a cell viability ([4]; 1000 nM) of 89%, a cell viability ([4]; 10000 nM) of 105% and a cell viability ([5]; 1 nM) of 97.5%. It also gave a cell viability ([5]; 10 nM) of 107%, a cell viability ([5]; 100 nM) of 109% and a cell viability ([5]; 1000 nM) of 99.8%. The cell viability ([5]; 10000 nM) was 105%, the “relative viability EC50” value [6] was over 10 µM and the “relative viability EC50” value [7] was over 10 µM. For the same compound, the “relative viability EC50” value [8] was over 10 µM, the “relative viability EC50” value [9] was over 10 µM and the “relative viability EC50” value [10] was over 10 µM. For the same compound, the drug sensitivity score [11] was 0, the drug sensitivity score [12] was 0 and the drug sensitivity score [13] was 0. For the same compound, the drug sensitivity score [14] was 0 and the drug sensitivity score [15] was 0.
